Data reported in patent publication US20090156662A1, “Fat Absorption Inhibitor” (ITO EN, LTD., priority 2006, published 2009).

Assays:
[1] = Micellar cholesterol release: cholesterol remaining in bile acid micelles after incubation with test substance, filtration and GC; conditions: for concentration of cholesterol in the micelles / concentration of micellar cholesterol relative to the case using theaflavin or theaflavin digallate: Embodiment 1; for concentration of cholesterol in the micelles: amount of addition raised up to 0.5 mM, incubated 37° C. 1 hour, FIG. 1; for concentration of micellar cholesterol relative to the case using theaflavin or theaflavin digallate: at an amount of 0.5 mM addition
[2] = Concentration of bile acid in the micelle solution by the enzymatic method (Eaton et al.); conditions: Embodiment 3; FIG. 4
Protocol: (§1) Prepared were micelles composed of 0.5 mM of cholesterol (manufactured by Sigma Co.), 6.6 mM of sodium taurocholate (manufactured by Nacalai Tesque Inc.), 0.6 mM of phosphatidyl choline from egg yolk (manufactured by Sigma Co.), 132 mM of sodium chloride (NaCl, manufactured by Nacalai Tesque Inc.) and 15 mM of sodium phosphate (NaH2PO4.2H2O, manufactured by Nacalai Tesque Inc.). The micelles were incubated at 37° C. for 24 hours for stabilization. Then 0.1 mL solution of the theaflavins formulation (manufactured by Funakoshi Corp.) was added to each of 3 mL portions of the micelles in such a manner that their concentrations were respectively 0 μg, 200 μg and 800 μg to 1 mL micelles, and the solutions were incubated at 37° C. for 1 hour (n=3). Each solution was filtered through a 220 nm filter to obtain a clear solution. Cholesterol was extracted from each micelle solution, and cholesterol remained in the micelle was measured with a gas chromatograph (manufactured by Shimadzu Corp.) using 5α-cholestane as an internal standard.
Moreover, the concentration of bile acid was measured by the enzymatic method in accordance with the process of Eaton et al (Eaton, D. L. et al., Proc. Soc. Exp. Biol. Med. 1976, January; 151(1): 198-202).

[3] = Micellar cholesterol release: cholesterol remaining in bile acid micelles after incubation with test substance, filtration and GC; conditions: for micellar cholesterol concentration: Embodiment 4, same method as Embodiment 1, FIG. 5
Protocol: Prepared were micelles composed of 0.5 mM of cholesterol, 6.6 mM of sodium taurocholate, 0.6 mM of phosphatidyl choline of egg yolk origin, 132 mM of sodium chloride (NaCl) and 15 mM of sodium phosphate (NaH2PO4.2H2O). The micelles were incubated for 24 hours at 37° C. for stabilizing the micelles. Then 0.1 mL solution of each theaflavin (manufactured by Nagara Science Co.) was added to each of 3 mL portions of the micelles in such a manner that their concentrations were to be respectively 0 μg, 200 μg and 800 μg to 1 mL of the micelles, which were then incubated at 37° C. for 1 hour. After that, each of solutions was filtered through a 220 nm filter (manufactured by Whatman Co.) to obtain a clear micelle solution. Cholesterol was extracted from each micelle solution obtained, and the concentration of cholesterol remained in the micelles was measured using a gas chromatograph (manufactured by Shimadzu Corp.) using 5α-cholestane as an internal standard.
as §1
Next, micelles for test were prepared (pH 6.8) at a composition of 0.5 mM of cholesterol, 6.6 mM of sodium taurocholate, 0.6 mM of egg yolk phosphatidyl choline, 132 mM of sodium chloride (NaCl) and sodium phosphate (NaH2PO4.2H2O), and the micelles were incubated at 37° C. for 24 hours for stabilization. […]

concentration of micellar cholesterol relative to the case using theaflavin or theaflavin digallate [1]	SMILES	concentration of cholesterol in the micelles [1]	micellar cholesterol concentration [3]	also measured
decreased about twice	O=C(O[C@@H]1Cc2c(O)cc(O)cc2O[C@@H]1c1cc(O)c(O)c2c(=O)c(O)cc([C@H]3Oc4cc(O)cc(O)c4C[C@H]3O)cc12)c1cc(O)c(O)c(O)c1 [theaflavin-3′-monogallate]	decreased in a manner dependent on the amount of addition	–	–
–	O=C(O[C@@H]1Cc2c(O)cc(O)cc2O[C@@H]1c1cc(O)c(O)c(O)c1)c1cc(O)c(O)c(O)c1 [epigallocatechin gallate]	–	decreased	effect on the concentration of bile acid [2]: did not show any effect; concentration of cholesterol in the micelles ([3]; Embodiment 3, 0, 200 and 800 μg to 1 mL micelles, 37° C. 1 hour, n=3, FIG. 3): decreased
–	O=C(O[C@@H]1Cc2c(O)cc(O)cc2O[C@@H]1c1cc(O)c(=O)c2c(O)c(O)cc([C@H]3Oc4cc(O)cc(O)c4C[C@H]3OC(=O)c3cc(O)c(O)c(O)c3)c2c1)c1cc(O)c(O)c(O)c1 [theaflavin-3,3′-digallate]	did not change	little effect	micelle formation inhibitory effect ([1]; Embodiment 2, amount of addition increased up to 2 mmol/L, FIG. 2): excellent micelle formation inhibitory effect; cholesterol decreasing effect ([1]; Embodiment 2, amount of addition up to 1 mmol/L, FIG. 2): relatively gentle
–	O=C(O[C@@H]1Cc2c(O)cc(O)cc2O[C@@H]1c1ccc(O)c(O)c1)c1cc(O)c(O)c(O)c1 [epicatechin gallate]	–	little effect	–
decreased about twice	O=C(O[C@@H]1Cc2c(O)cc(O)cc2O[C@@H]1c1cc(=O)c(O)c2c(O)c(O)cc([C@H]3Oc4cc(O)cc(O)c4C[C@H]3O)c2c1)c1cc(O)c(O)c(O)c1 [theaflavin-3-monogallate]	decreased in a manner dependent on the amount of addition	–	–
–	O=c1c(O)cc([C@H]2Oc3cc(O)cc(O)c3C[C@H]2O)cc2c([C@H]3Oc4cc(O)cc(O)c4C[C@H]3O)cc(O)c(O)c12 [theaflavin]	did not change	–	–
